From paper PMC3062254 (Molecular microbiology, 2011)

What was measured:
Assay in all cases: NADPH/GSH reductase-coupled HED assay, A340
Format in all cases: biochemical
Conditions in all cases: read-out: Km (HED); 0.5 mM GSH, 0.2 mM NADPH, yeast GSH reductase, 50 mM sodium phosphate pH 7.5, 50 mM NaCl, 25 °C
[1] = biological target: cGrx2 (Clostridium Cys-containing Grx2) (Alkaliphilus oremlandii, UniProt A8MJH2)
eGrx1 (E. coli Grx1) = eGrx1 (E. coli Grx1) (Escherichia coli, UniProt P68688)
[2] = biological target: cGrx1 (Clostridium selenoprotein Grx1) (Alkaliphilus oremlandii, UniProt A8MIN3, U13C)
[3] = biological target: cGrx2 (Clostridium Cys-containing Grx2) (Alkaliphilus oremlandii, UniProt A8MJH2, C15S)

Chain of eGrx1 (E. coli Grx1) (P68688 whole entry): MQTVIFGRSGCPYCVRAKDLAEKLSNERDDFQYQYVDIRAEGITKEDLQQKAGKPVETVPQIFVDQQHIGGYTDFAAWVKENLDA

OCCSSCCO [hydroxyethyl disulfide]
Km [1]: 17.6 ± 5.6 mM | Km (eGrx1 (E. coli Grx1)): 11.2 ± 2.2 mM | Km [2]: 1.5 ± 0.8 mM | Km [3]: 18.1 ± 4.5 mM
